Measurements as given in PubChem BioAssay AID2060900 (Molecular Pharmacology Branch, DTP, NCI, 2025).

System: 521955-158-R2-J5-PDC complex spheroids, viability
Test: Anticancer human tumor 521955-158-R2-J5-PDC patient-derived pancreatic carcinoma cell line growth inhibition [RAS]
Conditions: for IC50: curve of first compound; for viability, T/C: stronger effect = lower value
Outline: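 Multi-cell-type spheroids: tumor cells plus HUVEC endothelial cells and mesenchymal stem cells. RAS-pathway inhibitors were combined with targeted agents, each dosed in half-log steps down from clinical Cmax, or from 10 microM when Cmax was unknown.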

[1] = second compound 0.000949 µM, first compound 0.000949 µM
[2] = second compound 0.000949 µM, first compound 0.003 µM
[3] = second compound 0.000949 µM, first compound 0.00949 µM
[4] = second compound 0.000949 µM, first compound 0.03 µM
[5] = second compound 0.000949 µM, first compound 0.0949 µM
[6] = second compound 0.000949 µM, first compound 0.3 µM
[7] = second compound 0.003 µM, first compound 0.000949 µM
[8] = second compound 0.003 µM, first compound 0.003 µM
[9] = second compound 0.003 µM, first compound 0.00949 µM
[10] = second compound 0.003 µM, first compound 0.03 µM
[11] = second compound 0.003 µM, first compound 0.0949 µM
[12] = second compound 0.003 µM, first compound 0.3 µM
[13] = second compound 0.00949 µM, first compound 0.000949 µM
[14] = second compound 0.00949 µM, first compound 0.003 µM
[15] = second compound 0.00949 µM, first compound 0.00949 µM
[16] = second compound 0.00949 µM, first compound 0.03 µM
[17] = second compound 0.00949 µM, first compound 0.0949 µM
[18] = second compound 0.00949 µM, first compound 0.3 µM
[19] = second compound 0.03 µM, first compound 0.000949 µM
[20] = second compound 0.03 µM, first compound 0.003 µM
[21] = second compound 0.03 µM, first compound 0.00949 µM
[22] = second compound 0.03 µM, first compound 0.03 µM
[23] = second compound 0.03 µM, first compound 0.0949 µM
[24] = second compound 0.03 µM, first compound 0.3 µM
[25] = second compound 0.0949 µM, first compound 0.000949 µM
[26] = second compound 0.0949 µM, first compound 0.003 µM
[27] = second compound 0.0949 µM, first compound 0.00949 µM
[28] = second compound 0.0949 µM, first compound 0.03 µM
[29] = second compound 0.0949 µM, first compound 0.0949 µM
[30] = second compound 0.0949 µM, first compound 0.3 µM
[31] = second compound 0.3 µM, first compound 0.000949 µM
[32] = second compound 0.3 µM, first compound 0.003 µM
[33] = second compound 0.3 µM, first compound 0.00949 µM
[34] = second compound 0.3 µM, first compound 0.03 µM
[35] = second compound 0.3 µM, first compound 0.0949 µM
[36] = second compound 0.3 µM, first compound 0.3 µM
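Also: compound exposure lasted seven days before the viability read.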
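For viability, T/C in this document: spheroids also contain HUVEC endothelial cells and mesenchymal stem cells as stroma.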

`CCc1c2c(nc3ccc(O)cc13)-c1cc3c(c(=O)n1C2)COC(=O)[C@]3(O)CC` + CCn1c(-c2cccnc2C(C)OC)c2c3cc(ccc31)N1CCOC(CC(NC(=O)C(C(C)C)N(C)C(=O)C3(F)CCN(C(=O)C#CC(C)(C)N(C)C)CC3)C(=O)N3CCCC(N3)C(=O)OCC(C)(C)C2)C1 showed an IC50 (second compound 0.000949 µM) of 2.25 nM, an IC50 (second compound 0.003 µM) of 2.41 nM and an IC50 (second compound 0.00949 µM) of 2.52 nM. For the same molecule, the IC50 (second compound 0.03 µM) was 2.53 nM, the IC50 (second compound 0.0949 µM) was 2.64 nM and the IC50 (second compound 0.3 µM) was 1.7 nM. It also gave a viability, T/C [1] of 97.8%, a viability, T/C [2] of 34.1% and a viability, T/C [3] of 12.3%. It also gave a viability, T/C [4] of 5.82%, a viability, T/C [5] of 6.17% and a viability, T/C [6] of 6.87%. The viability, T/C [7] was 92.6%, the viability, T/C [8] was 39.6% and the viability, T/C [9] was 16.9%. The viability, T/C [10] was 5.84%, the viability, T/C [11] was 4.8% and the viability, T/C [12] was 7.45%. The viability, T/C [13] was 104%, the viability, T/C [14] was 40.5% and the viability, T/C [15] was 14.4%. For the same molecule, the viability, T/C [16] was 8.96%, the viability, T/C [17] was 6.33% and the viability, T/C [18] was 7.48%. The viability, T/C [19] was 72.7%, the viability, T/C [20] was 46.1% and the viability, T/C [21] was 11.3%. For the same molecule, the viability, T/C [22] was 10%, the viability, T/C [23] was 5.57% and the viability, T/C [24] was 7.99%. The viability, T/C [25] was 101%, the viability, T/C [26] was 43.5% and the viability, T/C [27] was 12.7%. For the same molecule, the viability, T/C [28] was 4.87%, the viability, T/C [29] was 7.25% and the viability, T/C [30] was 6.81%. For the same molecule, the viability, T/C [31] was 66%, the viability, T/C [32] was 34.3% and the viability, T/C [33] was 10%. The viability, T/C [34] was 5.73%, the viability, T/C [35] was 6.03% and the viability, T/C [36] was 4.48%.

`CC1(C)CCC(Nc2ncc(C(F)(F)F)c(-c3c[nH]c4c(P(C)(C)=O)c(C#N)ccc34)n2)CN1` (stereo unspecified) + CCn1c(-c2cccnc2C(C)OC)c2c3cc(ccc31)N1CCOC(CC(NC(=O)C(C(C)C)N(C)C(=O)C3(F)CCN(C(=O)C#CC(C)(C)N(C)C)CC3)C(=O)N3CCCC(N3)C(=O)OCC(C)(C)C2)C1 was tested, and the IC50 (second compound 0.000949 µM) was 7.81 nM, the IC50 (second compound 0.003 µM) was 8.8 nM and the IC50 (second compound 0.00949 µM) was 8.56 nM. The IC50 (second compound 0.03 µM) was 6.8 nM, the IC50 (second compound 0.0949 µM) was 7.28 nM and the IC50 (second compound 0.3 µM) was 5.8 nM. The viability, T/C [1] was 88.5%, the viability, T/C [2] was 60.9% and the viability, T/C [3] was 50.1%. For the same molecule, the viability, T/C [4] was 39.2%, the viability, T/C [5] was 40.7% and the viability, T/C [6] was 43%. For the same molecule, the viability, T/C [7] was 106%, the viability, T/C [8] was 65.2% and the viability, T/C [9] was 49.9%. It also gave a viability, T/C [10] of 44%, a viability, T/C [11] of 39.7% and a viability, T/C [12] of 45.7%. It also gave a viability, T/C [13] of 83.2%, a viability, T/C [14] of 62.5% and a viability, T/C [15] of 52%. The viability, T/C [16] was 36.2%, the viability, T/C [17] was 42.5% and the viability, T/C [18] was 54.1%. The viability, T/C [19] was 90.5%, the viability, T/C [20] was 68.7% and the viability, T/C [21] was 40.9%. The viability, T/C [22] was 38.4%, the viability, T/C [23] was 41.8% and the viability, T/C [24] was 48.4%. The viability, T/C [25] was 80.8%, the viability, T/C [26] was 66.2% and the viability, T/C [27] was 45.4%. The viability, T/C [28] was 38.9%, the viability, T/C [29] was 40% and the viability, T/C [30] was 39%. For the same molecule, the viability, T/C [31] was 68.2%, the viability, T/C [32] was 65.1% and the viability, T/C [33] was 38.7%. The viability, T/C [34] was 34.2%, the viability, T/C [35] was 38.2% and the viability, T/C [36] was 40.1%.

`NC1c2ccccc2OC12CCN(c1cnc3c(N4CCCc5ncccc54)n[nH]c3n1)CC2` (stereo unspecified) + C=CC(=O)N1CCN(c2nc(OCC3CCCN3C)nc3c(F)c(-c4nc(N)cc(C)c4C(F)(F)F)c(Cl)cc23)C(C)C1 was tested, and the IC50 (second compound 0.00316 µM) was over 10000 nM, the IC50 (second compound 0.01 µM) was over 10000 nM and the IC50 (second compound 0.0316 µM) was over 10000 nM. For the same molecule, the IC50 (second compound 0.1 µM) was 10000 nM, the IC50 (second compound 0.316 µM) was over 10000 nM and the IC50 (second compound 1 µM) was over 10000 nM. It also gave a viability, T/C (second compound 0.00316 µM, first compound 0.0316 µM) of 69.6%, a viability, T/C (second compound 0.00316 µM, first compound 0.1 µM) of 69.4% and a viability, T/C (second compound 0.00316 µM, first compound 0.316 µM) of 64.4%. The viability, T/C (second compound 0.00316 µM, first compound 1 µM) was 61.5%, the viability, T/C (second compound 0.00316 µM, first compound 3.16 µM) was 54.8% and the viability, T/C (second compound 0.00316 µM, first compound 10 µM) was 59.3%. It also gave a viability, T/C (second compound 0.01 µM, first compound 0.0316 µM) of 68%, a viability, T/C (second compound 0.01 µM, first compound 0.1 µM) of 68% and a viability, T/C (second compound 0.01 µM, first compound 0.316 µM) of 62.1%. It also gave a viability, T/C (second compound 0.01 µM, first compound 1 µM) of 63.2%, a viability, T/C (second compound 0.01 µM, first compound 3.16 µM) of 53.7% and a viability, T/C (second compound 0.01 µM, first compound 10 µM) of 65.6%. For the same molecule, the viability, T/C (second compound 0.0316 µM, first compound 0.0316 µM) was 65.8%, the viability, T/C (second compound 0.0316 µM, first compound 0.1 µM) was 79.6% and the viability, T/C (second compound 0.0316 µM, first compound 0.316 µM) was 69.1%. For the same molecule, the viability, T/C (second compound 0.0316 µM, first compound 1 µM) was 61.5%, the viability, T/C (second compound 0.0316 µM, first compound 3.16 µM) was 65.3% and the viability, T/C (second compound 0.0316 µM, first compound 10 µM) was 51.8%. For the same molecule, the viability, T/C (second compound 0.1 µM, first compound 0.0316 µM) was 73%, the viability, T/C (second compound 0.1 µM, first compound 0.1 µM) was 79.8% and the viability, T/C (second compound 0.1 µM, first compound 0.316 µM) was 55.1%. It also gave a viability, T/C (second compound 0.1 µM, first compound 1 µM) of 57.7%, a viability, T/C (second compound 0.1 µM, first compound 3.16 µM) of 51.8% and a viability, T/C (second compound 0.1 µM, first compound 10 µM) of 58.8%. The viability, T/C (second compound 0.316 µM, first compound 0.0316 µM) was 75.4%, the viability, T/C (second compound 0.316 µM, first compound 0.1 µM) was 59.2% and the viability, T/C (second compound 0.316 µM, first compound 0.316 µM) was 58.1%. The viability, T/C (second compound 0.316 µM, first compound 1 µM) was 59.5%, the viability, T/C (second compound 0.316 µM, first compound 3.16 µM) was 46.1% and the viability, T/C (second compound 0.316 µM, first compound 10 µM) was 60.5%. The viability, T/C (second compound 1 µM, first compound 0.0316 µM) was 70.3%, the viability, T/C (second compound 1 µM, first compound 0.1 µM) was 61.4% and the viability, T/C (second compound 1 µM, first compound 0.316 µM) was 54.7%. The viability, T/C (second compound 1 µM, first compound 1 µM) was 69.6%, the viability, T/C (second compound 1 µM, first compound 3.16 µM) was 60.4% and the viability, T/C (second compound 1 µM, first compound 10 µM) was 58.3%.
